Here are results for 88 molecules from a melting point compilation (Tetko et al.; mined from patent text by program, amines drawn as free bases though some values may be those of a salt).

The structures appear in SMILES notation. Where only a bound is given, the exact number is not on record here.

`O=c1[nH]c2ccccc2n1CCCN1CCC(C(O)(c2ccc(F)cc2)c2ccc(F)cc2)CC1` registered a melting point of 141 to 143 °C.

`CCC(=O)N1CCC(NC(=O)Nc2ccc(C(F)(F)F)cc2)CC1` came in with a melting point of 224 to 228 °C.

On to `COc1ccc(NC(NC(c2ccc(CC(C)(C)C)s2)C2CCCCC2)=C2C(=O)OC(C)(C)OC2=O)c(OC)c1` (stereo not drawn), for which the melting point lay in the range of 143 to 145 °C.

For the molecule `COc1ccc(C2=NN(C3CCN(C(=O)CCCOc4ccc5[nH]c(=O)ccc5c4)CC3)C(=O)CC2)cc1OC`, the melting point was 169 to 171 °C.

The molecule `CCC(C(OC)OC)N(C1CCCCC1)C1CCCCC1` (stereo not drawn) gave a melting point of 73.5 to 74.2 °C.

With `C=CCc1cc(C(=O)c2ccnn2C)c(Cl)c(Cl)c1O`, the melting point was 141 to 143 °C.

Take `COc1ccc(-c2sc3cc(OC)ccc3c2C(=O)c2ccc(Br)cc2)cc1`: the melting point was in the range of 127 to 129 °C.

`CC(C)(C)c1ccc2ncc(C(=O)NCc3ccc(Cl)cc3)c(O)c2c1` registered a melting point of 266 °C.

Molecule `NC(=O)CC[C@@H](CF)NC(=O)OCc1ccccc1` returned a melting point of 154 to 157 °C.

Turning to `CCOC(=O)C1=C(C)N(CCOC(=O)c2ccccc2)C(=O)NC1c1ccc(OC)cc1` (stereo not drawn), the melting point was found to be 75 °C.

In the case of `COC(=O)CS(=O)(=O)Nc1c(F)cccc1Oc1nc(OC)cc(OC)n1`, the melting point lay within 111 to 114 °C.

In turn, `O=Cc1ccc(CCBr)cc1` displayed a melting point of 49 to 52 °C.

`N#CCNC(=O)C1(NC(=O)c2ccc(Cn3ccnc3)cc2)CCCCC1` registered a melting point of 194 to 196 °C.

`O=C(O)c1ccsc1Cl` showed a melting point of 166 to 167 °C.

`COc1nccc(Oc2ccc(NC(=O)c3cc(F)cc(N4CCOCC4)c3)c3ccccc23)n1` gave a melting point of 216 to 217 °C.

For the molecule `COc1cc(N)c(Cl)cc1C(=O)N[C@@H]1CCN(CCCOc2ccc(F)cc2)C[C@H]1F` (relative stereo), the melting point came out at 125 °C.

For the molecule `Cc1cc(C)cc(-c2[nH]c3ccc(C(C)(C)C(=O)O)cc3c2CCN(CCCCc2ccc(NS(C)(=O)=O)cc2)C(=O)OCc2ccccc2)c1`, the melting point is > 102 °C.

`Cc1ncnn1-c1cc(F)ccc1CNC(=O)c1nc2n(c(=O)c1OCc1ccccc1)CCN2C(C)C` came in with a melting point of 158 to 159 °C.

`CCOc1cc(=O)oc2cc(C)ccc12` came in with a melting point of 142 to 143 °C.

Consider `Cc1cccc2c3c(n(Cc4ccccc4)c12)CCCC3=O`, for which the melting point was in the range of 165 to 166 °C.

The molecule `O=C(O)COc1ccc2c(-c3ccc(O)cc3F)noc2c1Cl` showed a melting point of 216 to 218 °C.

In turn, `Cc1nc(-c2ccc(C(=O)N3Cc4cccnc4Nc4ccccc43)c(Cl)c2)n[nH]1` came in with a melting point of 196 to 198 °C.

Regarding `CC(=O)c1ccc(=O)[nH]c1C`, the melting point is 196 to 198 °C.

Consider `CCCCC1(C2CCCC2)Cc2cc(OCC(=O)O)c(Cl)c(Cl)c2C1=O` (stereo not drawn), for which the melting point lay in the range of 173 to 174 °C.

Turning to `CC(=O)C=Cc1ccc2c(c1)OCO2`, the melting point was in the range of 108 to 109 °C.

The molecule `CC(=O)NCc1ccc(CN2CCN(c3ncc(Br)s3)CC2)cc1` gave a melting point of 160 to 163 °C.

For `CC(=O)c1cnc(N)o1`, the melting point fell in the range of 214 to 215 °C.

Molecule `O=C1CCC(N2Cc3c(OCc4cc(CN5CCOCC5)co4)cccc3C2=O)C(=O)N1` (stereo not drawn) registered a melting point of 168 to 170 °C.

On to `CCOC(=O)C(=O)c1cc(Cl)c(C)cc1NC(=O)OC(C)(C)C`, for which the melting point stood at 111 °C.

The molecule `O=C(SCC1C(=O)OCC1c1ccc(Cl)cc1)c1ccccc1` (stereo not drawn) came in with a melting point of 99 to 101 °C.

As for `CCOC(=O)c1cn(-c2cc(OC)c(F)cc2[N+](=O)[O-])c2c(Cl)c(F)c(F)cc2c1=O`, the melting point fell in the range of 244 to 248 °C.

As for `COc1ccc(-c2nc(CCl)nc3sc(C)c(C)c23)cc1OC`, the melting point fell in the range of 117 to 118 °C.

With `NS(=O)(=O)c1ccc(-c2cccc(-c3nc(-c4ccc(Cl)s4)cc(C(F)(F)F)n3)c2)s1`, the melting point turned out to be 233 °C.

For the molecule `CC(C)(C)c1ccc(S(=O)(=O)N(Cc2cc(C(C)(C)C)c(O)c(C(C)(C)C)c2)c2cccnc2)cc1`, the melting point lay in the range of 155 to 156 °C.

In turn, `Clc1ccc(Nc2ccc(Br)cn2)cc1` gave a melting point of 112 to 116 °C.

The molecule `Nc1cc(Cl)nc(S(=O)(=O)Cc2cccc(Br)c2)n1` had a melting point of 191 to 192 °C.

Consider `COc1ccc(S(N)(=O)=O)cc1C1CO1` (stereo not drawn), for which the melting point came out at 118 °C.

`OCC(F)(F)c1ccccn1` displayed a melting point of 58 to 60 °C.

On to `O=C(c1ccncc1)c1cc(-c2cccnc2)c(N2CCOCC2)s1`, for which the melting point worked out at 128 °C.

`CCC(C(=O)Oc1cc(=O)n(-c2ccccc2)c2ncccc12)c1ccccc1` (stereo not drawn) had a melting point of 166 to 168 °C.

Molecule `OCc1ccc(-c2cccnc2)s1` registered a melting point of 89 to 90 °C.

The molecule `CN1CC(=O)OC2(CCN(CC=CC(=O)Nc3cc4c(Nc5ccc(F)c(Cl)c5)ncnc4cc3OCC3CC3)CC2)C1` registered a melting point of 125 to 130 °C.

Molecule `CC1(C)C(=O)Nc2ccc(-c3cc(F)cc([N+](=O)[O-])c3)cc21` showed a melting point of 231 to 233 °C.

The molecule `N[C@@H](Cc1ccc(C(F)(F)F)cc1)[C@H](O)c1ccccc1` (racemic) returned a melting point of 64 to 65 °C.

As for `COP(=O)(COS(=O)(=O)c1c(C)cccc1Cl)OC`, the melting point lay within 55 to 57.5 °C.

`Cc1nc(N)c2nc(C)n(CCOc3ccccc3)c2c1C` gave a melting point of 176 to 177 °C.

Molecule `O=c1cc(C=Cc2ccc(O)cc2)oc(-c2ccccc2)c1` came in with a melting point of 198 to 201 °C.

In turn, `CC(=O)COc1ccc2c(C)cc(=O)oc2c1` yielded a melting point of 146 to 148 °C.

Take `CCn1c(C(C)NS(=O)(=O)c2ccc(Cl)c(Cl)c2)cnc1Sc1ccc(C)cc1` (stereo not drawn): the melting point was in the range of 173 to 174 °C.

Regarding `CCc1ccc(Nc2nnc(Cc3ccnc(O)c3)c3ccccc23)cc1Br`, the melting point lay in the range of 133 to 135 °C.

As to `Cc1cc(C2(C(F)(F)C(F)(F)C(F)(F)F)CC(c3ccc(Cl)cc3)=NO2)ccc1NC(=O)c1cccc(I)c1C(=O)NC(C)C` (stereo not drawn), the melting point is 156 to 158 °C.

For `CCOC(=O)/C=C/c1cc(OCOC)nn1Cc1ccc(Cl)cc1Cl`, the melting point was in the range of 98 to 99 °C.

Molecule `OCCC(O)OCn1cc(Br)c2c(Cl)ncnc21` (stereo not drawn) came in with a melting point of 152 °C.

`Cc1ccccc1OCC(=O)Nc1ccc(C(=O)N2CCCCc3ccccc32)cc1` returned a melting point of 172 to 175 °C.

With `CNC(=O)c1cc(-c2ccc(F)cc2)c2c3c(ccc2n1)OCO3`, the melting point was in the range of 233 to 235 °C.

As to `COc1ccc2[nH]c(S(=O)Cc3ncnc(N4CCCCC4)c3C)nc2c1` (stereo not drawn), the melting point is 87 to 89 °C.

`CCCCCN1Cc2cccc(S(=O)(=O)NC(=O)Nc3nc(OC)cc(OC)n3)c2S1(=O)=O`: the melting point lay within 197 to 203 °C.

Molecule `N#CC(C=O)=C(c1ccc(F)cc1)c1ccc(F)cc1` registered a melting point of 167 to 169 °C.

Turning to `CC1(C)CCC(C)(C)c2cc(CC#Cc3ccc(CO)c(O)c3)ccc21`, the melting point fell in the range of 94 to 95 °C.

`CC(=O)c1cc2c(cc1C=O)C(C)(C)CCC2(C)C` gave a melting point of 116 °C.

Consider `CC(=O)Nc1c(C(=O)c2cccc(C)c2)[nH]c2cc(Cl)ccc12`, for which the melting point lay within 96 to 100 °C.

`C#CCN(c1ccc(C(=O)OC(C)(C)C)cc1)C1CCc2cc3nc(COC(=O)C(C)(C)C)[nH]c(=O)c3cc21` (racemic) had a melting point of 134 °C.

Take `Cc1cc(CC(C)NCCC(c2ccccc2)c2ccccc2)ccc1O` (stereo not drawn): the melting point lay in the range of 115 to 118 °C.

Regarding `Cn1nc2c(oc3ccccc32)c1NCC(F)(F)F`, the melting point was 120 to 121 °C.

`COC(=O)c1ccc(OCCCNc2ccc3c(c2)OCO3)cc1` showed a melting point of 124 to 127 °C.

Consider `CC(C)(C)c1cc(CCc2ccccc2NC(=O)NC2CCCCCCC2)cc(C(C)(C)C)c1O`, for which the melting point is 174 to 176 °C.

In the case of `CCN(C)c1nn(C)c2ncc(-c3ccncc3)cc12`, the melting point was 182 to 197 °C.

Turning to `O=C(Nc1cccc(CO)c1)NC1N=C(c2ccccc2F)c2ccccc2N(CC(=O)N2CC3CCC(CC3)C2)C1=O` (racemic), the melting point is 143 to 161 °C.

With `CC(=O)OC1CSC(Oc2cc(Br)cnc2Cl)C(OC(C)=O)C1OC(C)=O` (stereo not drawn), the melting point was in the range of 143 to 147 °C.

`C#CCN(C)C(=O)NC` came in with a melting point of 68 to 69 °C.

Molecule `NC(=O)c1cc2cc(N3CCN(Cc4ccccc4)CC3)ccc2o1` had a melting point of 206 to 208 °C.

In the case of `COc1ccc(/C=C/C(=O)OCC(=O)COC(=O)/C=C/c2ccc(OC)cc2)cc1`, the melting point was in the range of 146 to 148 °C.

With `Oc1cc(Br)c2oc(-c3ccc(O)c(F)c3)nc2c1`, the melting point was 265 to 267 °C.

In the case of `CN(C)CCN1Cc2cccc3cccc(c23)S1(=O)=O`, the melting point was 97 to 98 °C.

Molecule `CCCCc1nc2sc3c(NCc4ccco4)ncnc3c2c2c1COC(C)(C)C2` came in with a melting point of 66.1 to 68.5 °C.

`O=c1c2cccnc2c(-c2ccc(Cl)cc2)c2n1CCN2` gave a melting point of 260 to 262 °C.

With `COc1cc2ccoc2cc1N1CCN(CC2Cc3ccccc3C2)CC1`, the melting point lay in the range of 188 to 192 °C.

The molecule `CCCC(=O)c1cnc2c(C)cccc2c1Nc1ccc(Cl)cc1C` came in with a melting point of 166 to 167 °C.

`Cc1cn(C2CC(ON)C(CO)O2)c(=O)[nH]c1=O` (stereo not drawn) registered a melting point of 81 °C.

`C[C@H]1C(=O)Nc2ccc(Cl)cc2N1C(=O)Oc1ccc(Cl)cc1` showed a melting point of 185 to 188 °C.

As for `COc1cc(CSc2ccc(O)cc2)cc(OC)c1OC`, the melting point lay within 139 to 140 °C.

As to `COc1nc(C)cnc1NS(=O)(=O)c1cccnc1-c1ccc(-c2ncon2)cc1`, the melting point fell in the range of 179 to 180 °C.

In turn, `COc1ccc(Sc2nc(-c3ccccc3)cnc2N)cc1` registered a melting point of 116 to 118 °C.

`O=C1CCC(N2C(=O)c3ccc(CNC(=O)c4ccc(Cl)c(Cl)c4)cc3C2=O)C(=O)N1` (stereo not drawn) registered a melting point of 253 to 255 °C.

The molecule `COc1cc(OC)nc(NC(=O)N=NS(=O)(=O)C2N(C)C=CN2C)n1` had a melting point of 201 to 203 °C.

In the case of `COc1cc(C2OCCO2)cc(I)c1O`, the melting point lay within 120 to 121 °C.

For `CC(C)(C)c1cc(CCc2ccccc2NC(=O)NC2CCN(Cc3ccncc3)CC2)cc(C(C)(C)C)c1O`, the melting point lay in the range of 156 to 158 °C.

Regarding `N=C(Nc1cccc2ccccc12)Nc1cccc2ccccc12`, the melting point lay in the range of 210 to 211 °C.

The melting point is the temperature of the solid-liquid transition.
